Assay results reported in patent US20050009924A1 (priority 2003, published 2005).
One block for each compound: values may come before it.

Tests used:
[1] = tested on: human hepatoma G2 cells; assay: Cytotoxicity assay (XTT colorimetric), Hep G2; assay type: cell-based; settings: Homo sapiens, HepG2; 48 h of drug exposure
[2] = MTT relative viability, PhTERT-SEAP (hTERT-BJ1) cells; settings: human
[3] = tested on: transcriptional activity of hTERT; assay: SEAP reporter assay of hTERT expression, PhTERT-SEAP (hTERT-BJ1); assay type: cell-based, human; settings: Homo sapiens, hTERT-BJ1, read-out: Relative SEAP activity (%)
Summary of the method: (§1)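 Cells seeded, grown 24 h at 37° C, refed, then exposed to varying drug amounts for another 24 h. Collected media heated 65° C for 10 min to kill heat-labile phosphatases, mixed with equal SEAP buffer (2 M diethanolamine, 1 mM MgCl2, 20 mM […]) plus 12 mM final p-nitrophenyl phosphate; rate of A405 increase measured.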

[4] = MTT relative viability, PhTERT-SEAP (H1299) cells; settings: human
[5] = tested on: transcriptional activity of hTERT; assay: SEAP reporter assay of hTERT expression, PhTERT-SEAP (H1299); assay type: cell-based, human
Summary of the method: as §1

[6] = tested on: rat glioma C6 cells; assay: Cytotoxicity assay (XTT colorimetric), C6 cells; assay type: cell-based; settings: Rattus norvegicus, C6; 48 h of drug exposure
[7] = tested on: iron-induced lipid peroxidation in rat brain homogenates; assay: Iron-induced lipid peroxidation in rat brain homogenates; settings: 10 mM; for Inhibition of LP(10 mM): mean percent inhibition (Table 3); for LP (%) (10 mM): relative percentage of inhibition (Table 1)
[8] = tested on: hepatitis B virus transfected hepatoma cell lines, HepG 2.2.15 cells; assay: Cytotoxicity assay, 2.2.15 cells; assay type: cell-based, human; settings: Homo sapiens, HepG2.2.15; 48 h of drug exposure
[9] = hTERT-BJ1 cells, stable PhTERT-SEAP reporter clone
[10] = Homo sapiens, NCI-H1299, 1.9 μM, H1299, read-out: Relative SEAP activity (%)
[11] = Homo sapiens, NCI-H1299, 19 μM, H1299, read-out: Relative SEAP activity (%)
[12] = Homo sapiens, NCI-H1299, H1299, read-out: Relative SEAP activity (%)

Structure (SMILES): O=C(Oc1cccc2c1C(=O)c1cccc(OC(=O)c3ccccc3Cl)c1C2=O)c1ccccc1Cl
IC50 [1]: 0.04 ± 0.01 µM
viability at 48 h, 1.9 µM [2, 9]: 107 ± 5.5%
viability at 48 h, 19 µM [2, 9]: 92 ± 4.3%
viability at 48 h, 190 µM [2, 9]: 40 ± 4%
activity at 1.9 µM [3]: 120 ± 10.5%
activity at 19 µM [3]: 116 ± 3.7%
activity at 190 µM [3]: 97 ± 10.8%
viability at 48 h, 1.9 µM [4]: 74 ± 5.3%
viability at 48 h, 19 µM [4]: 34 ± 3.4%
viability at 48 h, 190 µM [4]: 30 ± 1.4%
activity at 1.9 µM [5, 10]: 93 ± 4.4%
activity at 19 µM [5, 11]: 101 ± 4.9%
activity at 190 µM [5, 12]: 97 ± 5.3%
IC50 [6]: 40.7 ± 4.7 µM
Inhibition of LP(10 mM) [7]: 5 ± 0.5%

Structure (SMILES): O=C(Oc1cccc2c1C(=O)c1cccc(OC(=O)c3cccc(Cl)c3)c1C2=O)c1cccc(Cl)c1
IC50 [1]: 15.1 ± 1.9 µM
viability at 48 h, 1.9 µM [2, 9]: 101 ± 2.3%
viability at 48 h, 19 µM [2, 9]: 80 ± 6.7%
viability at 48 h, 190 µM [2, 9]: 44 ± 6%
activity at 1.9 µM [3]: 154 ± 23%
activity at 19 µM [3]: 152 ± 15.8%
activity at 190 µM [3]: 91 ± 25.2%
viability at 48 h, 1.9 µM [4]: 98 ± 3.9%
viability at 48 h, 19 µM [4]: 88 ± 7.2%
viability at 48 h, 190 µM [4]: 46 ± 3.5%
activity at 1.9 µM [5, 10]: 83 ± 5.7%
activity at 19 µM [5, 11]: 92 ± 8.1%
activity at 190 µM [5, 12]: 81 ± 2.5%
IC50 [6]: 25.1 ± 2.8 µM
Inhibition of LP(10 mM) [7]: 1 ± 0.1%

Structure (SMILES): O=C(Oc1cccc2c1C(=O)c1cccc(OC(=O)c3ccc(Cl)cc3)c1C2=O)c1ccc(Cl)cc1
IC50 [1]: 48.1 ± 4.5 µM
viability at 48 h, 1.9 µM [2, 9]: 111 ± 6.5%
viability at 48 h, 19 µM [2, 9]: 89 ± 14.3%
viability at 48 h, 190 µM [2, 9]: 48 ± 9%
activity at 1.9 µM [3]: 136 ± 5.7%
activity at 19 µM [3]: 123 ± 6.2%
activity at 190 µM [3]: 107 ± 6%
viability at 48 h, 1.9 µM [4]: 91 ± 10%
viability at 48 h, 19 µM [4]: 57 ± 1.8%
viability at 48 h, 190 µM [4]: 31 ± 1%
activity at 1.9 µM [5, 10]: 106 ± 4.5%
activity at 19 µM [5, 11]: 106 ± 4.9%
activity at 190 µM [5, 12]: 97 ± 4.9%
IC50 [6]: 38.6 ± 3.5 µM
Inhibition of LP(10 mM) [7]: 2 ± 0.2%

Structure (SMILES): O=C1c2cccc(SCC(O)CO)c2C(=O)c2cccc(SCC(O)CO)c21 (stereo not shown)
IC50 [1]: 34.3 ± 1.8 µM
viability at 48 h, 2.4 µM [2]: 98 ± 10.7%
viability at 48 h, 24 µM [2]: 86 ± 5.5%
viability at 48 h, 240 µM [2]: 79 ± 8.2%
activity at 2.4 µM ([3]; 2.4 μM): 144 ± 16.9%
activity at 24 µM ([3]; 24 μM): 136 ± 10%
activity at 240 µM ([3]; 240 μM): 142 ± 9.1%
viability at 48 h, 2.4 µM [4]: 102 ± 6.2%
viability at 48 h, 24 µM [4]: 103 ± 4.2%
viability at 48 h, 240 µM [4]: 83 ± 18.2%
activity at 2.4 µM ([5]; Homo sapiens, NCI-H1299, 2.4 μM, H1299, read-out: Relative SEAP activity (%)): 105 ± 21.6%
activity at 24 µM ([5]; Homo sapiens, NCI-H1299, 24 μM, H1299, read-out: Relative SEAP activity (%)): 90 ± 5.7%
activity at 240 µM ([5]; Homo sapiens, NCI-H1299, 240 μM, H1299, read-out: Relative SEAP activity (%)): 81 ± 6.1%
IC50 [6]: 38.5 ± 1.5 µM
LP (%) (10 mM) [7]: 83 ± 1.1%

Structure (SMILES): O=C1c2cccc(SCCO)c2C(=O)c2cccc(SCCO)c21 [IIb, 1,5-Bis(hydroxyethylthio)-anthraquinone]
IC50 [1]: 36.4 ± 1.5 µM
viability at 48 h, 2.8 µM [2]: 94 ± 9.3%
viability at 48 h, 28 µM [2]: 49 ± 2.9%
viability at 48 h, 280 µM [2]: 23 ± 2.9%
activity at 2.8 µM ([3]; 2.8 μM): 104 ± 15.7%
activity at 28 µM ([3]; 28 μM): 98 ± 10.9%
activity at 280 µM ([3]; 280 μM): 71 ± 5%
viability at 48 h, 2.8 µM [4]: 54 ± 4%
viability at 48 h, 28 µM [4]: 29 ± 7%
viability at 48 h, 280 µM [4]: 36 ± 7.2%
activity at 2.8 µM ([5]; Homo sapiens, NCI-H1299, 2.8 μM, H1299, read-out: Relative SEAP activity (%)): 97 ± 15.7%
activity at 28 µM ([5]; Homo sapiens, NCI-H1299, 28 μM, H1299, read-out: Relative SEAP activity (%)): 76 ± 12.4%
activity at 280 µM ([5]; Homo sapiens, NCI-H1299, 280 μM, H1299, read-out: Relative SEAP activity (%)): 45 ± 2.7%
IC50 [6]: 21.5 ± 0.8 µM
LP (%) (10 mM) [7]: 16 ± 2.2%

melting point: 238 to 239 °C
Structure (SMILES): O=C1c2cccc(SCCC(O)O)c2C(=O)c2cccc(SCCC(O)O)c21 [IId, 1,5-Bis(dihydroxypropylthio)-anthraquinone]

Structure (SMILES): CCCCNc1cccc2c1C(=O)c1cccc(NCCCC)c1C2=O [IVg, 1,5-Bis(butylamino)anthraquinone]
melting point: 152 to 153 °C

Structure (SMILES): O=C1c2cccc(NC3CCCC3)c2C(=O)c2cccc(NC3CCCC3)c21 [IVi, 1,5-Bis(cyclopentylamino)anthraquinone]
melting point: 198 to 201 °C

melting point: 208 to 210 °C
Structure (SMILES): NCCCCNc1cccc2c1C(=O)c1cccc(NCCCCN)c1C2=O [IVl, 1,5-Bis(aminobutylamino)-anthraquinone]

Structure (SMILES): NCCCCCNc1cccc2c1C(=O)c1cccc(NCCCCCN)c1C2=O [IVm, 1,5-Bis(aminopentylamino)-anthraquinone]
IC50 [1]: 17.4 ± 0.74 µM
IC50 [8]: > 20 µM
melting point: 113 to 115 °C
IC50 [6]: 8.36 µM

melting point: 142 to 144 °C
Structure (SMILES): CCCCCCNc1cccc2c1C(=O)c1cccc(NCCCCCC)c1C2=O [IVn, 1,5-Bis(hexylamino)-anthraquinone]

melting point: 188 to 190 °C
Structure (SMILES): CC1CCCC(Nc2cccc3c2C(=O)c2cccc(NC4CCCC(C)C4C)c2C3=O)C1C (stereo not shown) [IVp, 1,5-Bis(2,3-dimethylcyclohexylamino)-anthraquinone]

Structure (SMILES): O=C1c2cccc(NCc3ccccc3)c2C(=O)c2cccc(NCc3ccccc3)c21 [IVr, 1,5-Bis(benzylamino)-anthraquinone]
IC50 [1]: > 20 µM
IC50 [8]: > 20 µM
melting point: 218 to 220 °C
IC50 [6]: > 20 µM

Structure (SMILES): O=C1c2c(O)ccc(O)c2C(=O)c2c(NCCNCCO)ccc(NCCNCCO)c21 [Mitoxantrone, reference compound]
IC50 [1]: 2 ± 0.5 µM
viability at 48 h, 1.9 µM [2]: 75 ± 2.9%
viability at 48 h, 19 µM [2]: 56 ± 3.1%
viability at 48 h, 193 µM [2]: 10 ± 2%
IC50 [8]: 0.4 µM
activity at 1.9 µM [3]: 30 ± 5.8%
activity at 19 µM [3]: 13 ± 9.2%
activity at 193 µM ([3]; 193 μM): 4 ± 14.2%
viability at 48 h, 1.9 µM [4]: 100 ± 5.6%
viability at 48 h, 19 µM [4]: 57 ± 4.3%
viability at 48 h, 193 µM [4]: 39 ± 3.2%
SEAP/vibility ([5]; 1.9 μM, PhTERT-SEAP(hTERT-H1299)): 0.82
SEAP/vibility ([5]; 19 μM, PhTERT-SEAP(hTERT-H1299)): 1.16
SEAP/vibility ([5]; 193 μM, PhTERT-SEAP(hTERT-H1299)): 1.21
activity at 1.9 µM ([5]; Homo sapiens, NCI-H1299, 1.9 μM, PhTERT-SEAP(hTERT-H1299), read-out: Relative SEAP activity (%)): 81 ± 3.8%
activity at 19 µM ([5]; Homo sapiens, NCI-H1299, 19 μM, PhTERT-SEAP(hTERT-H1299), read-out: Relative SEAP activity (%)): 66 ± 4%
activity at 193 µM ([5]; Homo sapiens, NCI-H1299, 193 μM, PhTERT-SEAP(hTERT-H1299), read-out: Relative SEAP activity (%)): 47 ± 3.9%
IC50 [6]: 0.07 ± 0.01 µM
Inhibition of LP(10 mM) [7]: >100%
LP (%) (10 mM) [7]: 54 ± 1.5%

melting point: 321 °C
Structure (SMILES): CCC(=O)Nc1cccc2c1C(=O)c1cccc(NC(=O)CC)c1C2=O [VIIb, 1,5-bis-(methylacetamido)-9,10-anthracenedione]

melting point: 288 to 289 °C
Structure (SMILES): CC(Cl)C(=O)Nc1cccc2c1C(=O)c1cccc(NC(=O)C(C)Cl)c1C2=O (stereo not shown) [VIId, 1,5-bis-(2-chloropropionamido)-9,10-anthracenedione]

Structure (SMILES): NCCCCCNc1cccc2c1C(=O)c1c(NCCCCCN)cccc1C2=O [Vm, 1,8-Bis(aminopentylamino)-anthraquinone]
IC50 [1]: 0.09 µM
IC50 [8]: 1.29 µM
melting point: 115 to 116 °C
IC50 [6]: 0.11 ± 0.01 µM
